According to patent US8580843B2, “Use of diindolylmethane (DIM) compounds and derivatives as neuroprotective agents” (Colorado State University Research Foundation, priority 2008, dated 2013):

Legend:
Type in all cases: cell-based, mouse
Nos2 mRNA = experiment: Semi-quantitative real-time RT-PCR of Nos2 mRNA in primary astrocytes challenged with MPTP and TNF-α/IFN-γ
Source text: Primary Cell Isolation. Cortical astrocytes were isolated from day-1 old C57B1/6 or transgenic mouse pups according to procedures described previously (Aschner and Kimelberg, 1991), and purity confirmed through immunofluorescent staining using antibodies against GFAP and Iba1. Briefly, pups were euthanized by decapitation under isofluorane anesthesia and cortices (astrocytes) or striatum (neurons) rapidly dissected out, and meninges removed. Tissue was subject to digestion with Dispase (1.5 U/ml), and selection of astrocytes was performed by complete media change 24 hrs after plating to remove non-astroglial cell types by serum shock. This method routinely results in cultures that are approximately 99% pure astrocytes, with less than 1% contaminating microglial cells (Supplementary FIG. 1). Astrocyte cultures were maintained at 37° C. and 5% CO2 in minimum essential media supplemented with 10% heat-inactivated fetal bovine serum and a penicillin (0.001 mg/ml), streptomycin (0.002 mg/ml), and neomycin (0.001) antibiotic cocktail. Cell media was changed 24 hrs prior to all treatments. Primary neuronal cultures were seeded onto poly-L-lysine-coated 30 mm glass coverslips at 4×10^5 cells per well, and maintained in neurobasal media supplemented with 2 mM L-glutamine, a B27 supplement, and a penicillin (0.001 mg/ml), streptomycin (0.002 mg/ml), and neomycin (0.001) antibiotic cocktail. Neuronal culture media was changed 24 hours after isolation and every two days afterward, and culture purity confirmed through cell morphology and immunostaining against GAD65/67 (Supplementary FIG. 2). Neurons were used within two weeks of plating. All animal procedures were approved by the Colorado State University Institutional Animal Care and Use Committee, and were conducted in accordance with published NIH guidelines.
RT and Real-Time RT-PCR. […] RNA was isolated using the RNEasy Mini kit (Qiagen, Valencia, Calif.), and purity and concentration were determined using a Nanodrop ND 1000 spectrophotometer (NanoDrop Technologies, Wilmington, Del.). Following purification, 1 ug of RNA was used as template for reverse transcriptase (RT) reactions using the iScript RT kit (BioRad, Hercules Calif.). The resulting cDNA was immediately profiled for Nos2 gene expression (forward: 5′-TCACGCTTGGGTCTTGTT-3′ (SEQ ID NO:1); reverse: 5′-[…] -3′3′ (SEQ ID NO:2)) using β-Actin as a housekeeping gene (forward: 5′-[…]-3′3′ (SEQ ID NO:3); reverse: 5′-CGCTCGTTGCCAATACTG-3′3′ (SEQ ID NO:4)) according to the 2^−ΔΔCT method (Livak and Schmittgen, 2001).

NOS2 protein = experiment: Immunoblotting of NOS2 protein in astrocytes exposed to MPTP and TNF-α/IFN-γ; details: FIG. 7(C), concentration not given
Source text: Primary Cell Isolation. Cortical astrocytes were isolated from day-1 old C57B1/6 or transgenic mouse pups according to procedures described previously (Aschner and Kimelberg, 1991), and purity confirmed through immunofluorescent staining using antibodies against GFAP and Iba1. Briefly, pups were euthanized by decapitation under isofluorane anesthesia and cortices (astrocytes) or striatum (neurons) rapidly dissected out, and meninges removed. Tissue was subject to digestion with Dispase (1.5 U/ml), and selection of astrocytes was performed by complete media change 24 hrs after plating to remove non-astroglial cell types by serum shock. This method routinely results in cultures that are approximately 99% pure astrocytes, with less than 1% contaminating microglial cells (Supplementary FIG. 1). Astrocyte cultures were maintained at 37° C. and 5% CO2 in minimum essential media supplemented with 10% heat-inactivated fetal bovine serum and a penicillin (0.001 mg/ml), streptomycin (0.002 mg/ml), and neomycin (0.001) antibiotic cocktail. Cell media was changed 24 hrs prior to all treatments. […]
Western Blotting. […] Protein was quantified using the BCA assay (Pierce, Rockford Ill.), and 20 μg of protein were separated by standard SDS-PAGE using a 6% slab gel (BioRad, Hercules Calif.) followed by semi-dry transfer to polyvinylidene fluoride (PVDF) membrane (Pall Corp., Pensacola, Fla.). […]

[1] = tested on: primary striatal neurons co-cultured with activated astrocytes; experiment: Astrocyte-neuron co-culture: apoptosis of primary striatal neurons (caspase activity, Annexin V binding); details: for Apoptosis in co-cultured striatal neurons (caspase activity and Annexin V-binding): astrocytes co-treated with 10 μM for 8 hours, six hours of co-culture, FIG. 6 C-D
Procedure: Astrocyte Neuron Co-Culture. Cells were isolated as described above and astrocytes grown to confluence on permeable cell culture inserts (BD Biosciences, San Jose, Calif.) prior to treatment. Astrocytes were then treated with MPTP (10 μM), TNF-α (10 pg/ml) and IFN-γ (1 ng/ml) in the presence or absence of DIM-C-pPhtBu (10 μM), Rosiglitazone (10 μM) AMT (25 nM), or DMSO vehicle control for 8 hours. Media was then removed, and the astrocytes washed three times with sterile PBS to prevent carryover of treatment medium to the neurons, and the inserts were placed directly in each well over cultured neurons. Astrocyte-containing inserts were removed following six hours of co-culture, and neuronal caspase activity and phosphatidylserine translocation were measured by widefield fluorescence microscopy using the general cell permeable fluorescent caspase substrate rhodamine 110, bis-(L-aspartic acid amide) and an Annexin V Alexa Fluor 680 conjugate, respectively. Images were acquired using a Zeiss 20× air PlanApochromat objective and at least 10 microscopic fields were examined per treatment group over three independent experiments.
The efficacy of DIM-C-pPhtBu in preventing astrocyte-dependent neuronal apoptosis was examined in FIG. 6. Astrocytes were grown to confluence in cell culture inserts that are permeable to small molecules but prevent direct cell-cell contact. Following treatment of astrocytes with MPTP and TNF-α/IFN-γ in the presence or absence of DIM-C-pPhtBu (10 μM), rosiglitazone (10 μM), the NOS2 inhibitor AMT (25 nM), or DMSO, astrocytes were washed with PBS and co-incubated directly above primary striatal neurons in neurobasal medium. Indices of neuronal apoptosis were then measured using live-cell fluorescence imaging of caspase activity (FIG. 6A) and Annexin V binding (FIG. 6B). […] The DMSO vehicle control had no suppressive effect.
Differing letters denote statistical significance (p<0.05).

[2] = astrocytes + MPTP, TNF-α, IFN-γ, FIG. 7(B), concentration not given
[3] = 10 μM, astrocytes + MPTP, TNF-α/IFN-γ, FIG. 2B

SMILES | Suppression of Nos2 mRNA (Nos2 mRNA; [2]) | Suppression of Nos2 mRNA, dose response (Nos2 mRNA; concentrations ranging from 0.1 to 3 μM, astrocytes + MPTP, TNF-α, IFN-γ, FIG. 7(A)) | Suppression of NOS2 protein expression (NOS2 protein) | Annexin V binding in neurons increased by MPTP and cytokine treatment ([1]; 1 uM on astrocytes for 24 hrs, then 6 hrs with primary striatal neurons, FIG. 10(A)) | Activation of astrocytes and subsequent neuronal apoptosis (quantitative Annexin V fluorescence) ([1]; 1 uM on astrocytes for 24 hrs, then 6 hrs with primary striatal neurons, FIG. 10(B)) | Suppression of Nos2 mRNA (Nos2 mRNA; [3]) | Lowest dose that suppressed Nos2 induction to levels statistically indistinguishable from saline-treated control astrocytes (Nos2 mRNA; primary astrocytes, MPTP + TNF-α/IFN-γ) [µM] | Suppression of MPTP and TNF-α/IFN-γ induced Nos2 mRNA expression, dose response (Nos2 mRNA; primary astrocytes, concentrations ranging from 1 to 100 μM, FIG. 2A) | Apoptosis in co-cultured striatal neurons (caspase activity and Annexin V-binding) [1]
COc1ccc(C(c2c[nH]c3ccccc23)c2c[nH]c3ccccc23)cc1 [DIM-C-pPhOCH3, 1,1-bis(3′-indolyl)-1-(p-methoxyphenyl)methane] | equivalent suppression of Nos2 mRNA | dose-responsive suppression | suppression of NOS2 protein expression | inhibited | significantly reduced |  |  |  | 
CC(C)(C)c1ccc(C(c2c[nH]c3ccccc23)c2c[nH]c3ccccc23)cc1 [DIM-C-pPhtBu, 1,1-bis(3′-indolyl)-1-(p-t-butylphenyl)methane] |  |  |  |  |  | equivalent suppression of Nos2 to levels observed in saline-treated control astrocytes | 10 | dose-dependently suppressed | prevented
CN(CCOc1ccc(CC2SC(=O)NC2=O)cc1)c1ccccn1 (stereo not shown) [rosiglitazone, 5-((4-(2-(methyl-2-pyridinylamino)ethoxy)phenyl)methyl)-2,4-thiazolidinedione, reference compound] | equivalent suppression of Nos2 mRNA |  | suppression of NOS2 protein expression |  |  | equivalent suppression of Nos2 to levels observed in saline-treated control astrocytes |  |  | prevented
